Patent publication US20100311677A1, “Active Ingredient Combinations Having Insecticidal and Acaricidal Properties” (Bayer CropScience AG, priority 2007, published 2010)

Tests used:
Phaedon cochleariae = Phaedon cochleariae larvae test (Example E), sprayed cabbage leaves; conditions: for Kill in % after 6d / Kill in % after 2d: alone
Tetranychus urticae = Tetranychus urticae test (OP-resistant/spray treatment) (Example G), bean leaf disks; format: in vivo
Procedure: Tetranychus urticae Test (OP-Resistant/Spray Treatment)
After the desired period of time, the activity in % is determined.

Myzus persicae = Myzus persicae test (Example C), sprayed cabbage leaves; format: in vivo; conditions: alone; for pest or weed control at 0.16 g/ha / pest or weed control at 4 g/ha: Myzus persicae, 144 h, read-out: Kill in % after 6d; for pest or weed control at 0.16 g/ha / Kill in % after 6d / pest or weed control at 4 g/ha: after 6 d; for Kill in % after 6d: 0.8 g/ha
Spodoptera frugiperda = Spodoptera frugiperda larvae test (Example F), sprayed cabbage leaves; format: in vivo; conditions: alone
Excerpt: Spodoptera frugiperda Larvae Test

Nilaparvata lugens = Nilaparvata lugens test (Example D), sprayed rice plants; format: in vivo; conditions: 0.8 g/ha, alone
Bemisia tabaci = Bemisia tabaci test (Example B), sprayed cotton leaves, larval stages; format: in vivo; conditions: 4 g/ha, alone
Aphis gossypii = Aphis gossypii test (Example A), sprayed cotton leaves; format: in vivo; conditions: 0.16 ppm, alone
[1] = Phaedon cochleariae, in Brassica oleracea, 144 h, read-out: Kill in % after 6d
[2] = Tetranychus urticae, foliar, 144 h, active compound alone, 4 g/ha, after 6 d, read-out: Kill in % after 6 d
[3] = Tetranychus urticae, foliar, 144 h, active compound alone, 20 g/ha, after 6 d, read-out: Kill in % after 6 d

Molecule: CC1(C)C(C=C(Cl)Cl)C1C(=O)OC(C#N)c1cccc(Oc2ccccc2)c1 (stereo not drawn) [alpha-cypermethrin (2), alpha-cypermethrin]
- pest or weed control at 0.8 g/ha (Phaedon cochleariae; [1]): 0%
- pest or weed control at 0.8 g/ha (Tetranychus urticae; Tetranychus urticae, foliar, 144 h, active compound alone, 0.8 g/ha, after 6 d, read-out: Kill in % after 6 d): 0%
- pest or weed control at 0.16 g/ha (Myzus persicae): 0%
- Kill in % after 2d (Spodoptera frugiperda; 0.8 g/ha): 33%

Molecule: CC(C)N1C(=O)N(c2ccccc2)CS/C1=N\C(C)(C)C [buprofezin (42), buprofezin]
- pest or weed control at 100 g/ha (Phaedon cochleariae; [1]): 0%
- Kill in % after 2d (Tetranychus urticae; 100 g/ha, alone, after 2 d): 0%
- Kill in % after 1d (Myzus persicae; 4 g/ha, after 1 d): 0%
- Kill in % after 6d (Nilaparvata lugens): 10%
- Kill in % after 10d (Bemisia tabaci): 30%

Molecule: Cc1cc(C(F)(C(F)(F)F)C(F)(F)F)ccc1NC(=O)c1cccc(Cl)c1C(=O)N[C@@H](C)CS(C)(=O)=O [compound (55)]
- pest or weed control at 0.8 g/ha (Phaedon cochleariae; [1]): 0%
- pest or weed control at 4 g/ha (Tetranychus urticae; [2]): 0%
- pest or weed control at 0.16 g/ha (Myzus persicae): 0%
- pest or weed control at 0.8 g/ha (Spodoptera frugiperda; Spodoptera frugiperda, 144 h, 0.8 g/ha, after 6 d, read-out: Kill in % after 6d): 50%

Molecule: Cc1cc(C(F)(C(F)(F)F)C(F)(F)F)ccc1NC(=O)c1cccc(I)c1C(=O)NC(C)(C)CS(C)(=O)=O [flubendiamide (54), flubendiamide]
- Kill in % after 6d (Phaedon cochleariae; 20 g/ha): 0%
- Kill in % after 6d (Tetranychus urticae; active compound alone, 20 g/ha, after 6 d): 0%
- Kill in % after 6d (Myzus persicae): 0%
- Kill in % after 6d (Spodoptera frugiperda; 0.8 g/ha, after 6 d): 0%

Molecule: CC1(C)[C@H](/C=C(\Cl)C(F)(F)F)[C@@H]1C(=O)O[C@H](C#N)c1cccc(Oc2ccccc2)c1 [gamma-cyhalothrin (12b), gamma-cyhalothrin]
- Kill in % after 2d (Spodoptera frugiperda; 0.032 g/ha): 5%
- Kill in % after 6d (Aphis gossypii): 0%

Molecule: COP(N)(=O)SC (stereo not shown) [methamidophos (113), methamidophos]
- Kill in % after 2d (Phaedon cochleariae; 100 g/ha): 0%
- pest or weed control at 20 g/ha (Tetranychus urticae; [3]): 0%
- pest or weed control at 4 g/ha (Myzus persicae; 4 g/ha): 0%
- Kill in % after 2d (Spodoptera frugiperda; 100 g/ha): 67%

Molecule: CCOC(=O)OC1=C(c2cc(C)ccc2C)C(=O)N[C@]12CC[C@@H](OC)CC2 [spirotetramat (98), spirotetramat]
- pest or weed control at 20 g/ha (Phaedon cochleariae; [1]): 50%
- pest or weed control at 4 g/ha (Tetranychus urticae; [2]): 50%
- pest or weed control at 20 g/ha (Spodoptera frugiperda; Spodoptera frugiperda, 144 h, 20 g/ha, after 6 d, read-out: Kill in % after 6d): 0%

Molecule: CS/C(C)=N/OC(=O)N(C)SN(C)C(=O)O/N=C(\C)SC [thiodicarb (111), thiodicarb]
- pest or weed control at 100 g/ha (Phaedon cochleariae; [1]): 0%
- pest or weed control at 20 g/ha (Tetranychus urticae; [3]): 0%
- pest or weed control at 4 g/ha (Spodoptera frugiperda; Spodoptera frugiperda, 144 h, 4 g/ha, after 6 d, read-out: Kill in % after 6d): 67%

Molecule: O=C(NC(=O)c1ccccc1Cl)Nc1ccc(OC(F)(F)F)cc1 [triflumuron (36), triflumuron]
- Kill in % after 2d (Phaedon cochleariae; 20 g/ha): 17%
- pest or weed control at 20 g/ha (Tetranychus urticae; [3]): 0%
- pest or weed control at 4 g/ha (Myzus persicae; 4 g/ha): 0%
- pest or weed control at 0.16 g/ha (Spodoptera frugiperda; Spodoptera frugiperda, 144 h, 0.16 g/ha, after 6 d, read-out: Kill in % after 6d): 0%

Molecule: spinosad [spinosad (79)]
- Kill in % after 6d (Phaedon cochleariae; 0.8 g/ha): 0%
- Kill in % after 6d (Tetranychus urticae; active compound alone, 4 g/ha, after 6 d): 80%
- Kill in % after 6d (Myzus persicae): 0%
- Kill in % after 2d (Spodoptera frugiperda; 0.8 g/ha): 0%
